Laboratory results taken from the supplement of paper PMC10307832.

Columns and labels:
Test in all cases: relative viability (nuclei count vs DMSO), 5 days (fraction); higher = more cells survive
Nelarabine + Olaparib = compound: COc1nc(N)nc2c1ncn2[C@@H]1O[C@H](CO)[C@@H](O)[C@@H]1O [Nelarabine] + O=C(c1cc(Cc2n[nH]c(=O)c3ccccc23)ccc1F)N1CCN(C(=O)C2CC2)CC1 [Olaparib] (partner 8 µM)
Summary of the method: (§1)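 Relative viability equals treated-well nuclei counts divided by vehicle-well nuclei counts. Counts came from 4× images of lung cancer cell lines grown in 1536-well plates for 5 days after pin-tool dosing on the day after seeding. Dosing used one drug alone or a fixed anchor-drug dose plus five library-drug doses (not always all listed) in √10 steps, and values are medians of duplicate plates.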

Nelarabine + Tozasertib = compound: COc1nc(N)nc2c1ncn2[C@@H]1O[C@H](CO)[C@@H](O)[C@@H]1O [Nelarabine] + Cc1cc(Nc2cc(N3CCN(C)CC3)nc(Sc3ccc(NC(=O)C4CC4)cc3)n2)n[nH]1 [Tozasertib] (partner 0.1 µM)
Summary of the method: as §1

Adavosertib + Pictilisib = compound: C=CCn1c(=O)c2cnc(Nc3ccc(N4CCN(C)CC4)cc3)nc2n1-c1cccc(C(C)(C)O)n1 [Adavosertib] + CS(=O)(=O)N1CCN(Cc2cc3nc(-c4cccc5[nH]ncc45)nc(N4CCOCC4)c3s2)CC1 [Pictilisib] (partner 1 µM)
Summary of the method: as §1

Adavosertib + Foretinib = compound: C=CCn1c(=O)c2cnc(Nc3ccc(N4CCN(C)CC4)cc3)nc2n1-c1cccc(C(C)(C)O)n1 [Adavosertib] + COc1cc2c(Oc3ccc(NC(=O)C4(C(=O)Nc5ccc(F)cc5)CC4)cc3F)ccnc2cc1OCCCN1CCOCC1 [Foretinib] (partner 0.25 µM)
Summary of the method: as §1

| Cell Line | relative viability (Nelarabine + Olaparib; first compound 0.01 µM) | relative viability (Nelarabine + Olaparib; first compound 0.03162 µM) | relative viability (Nelarabine + Olaparib; first compound 0.1 µM) | relative viability (Nelarabine + Olaparib; first compound 0.3162 µM) | relative viability (Nelarabine + Olaparib; first compound 1 µM) | relative viability (Nelarabine + Tozasertib; first compound 0.01 µM) | relative viability (Nelarabine + Tozasertib; first compound 0.03162 µM) | relative viability (Nelarabine + Tozasertib; first compound 0.1 µM) | relative viability (Nelarabine + Tozasertib; first compound 0.3162 µM) | relative viability (Nelarabine + Tozasertib; first compound 1 µM) | relative viability (Adavosertib + Pictilisib; first compound 0.01 µM) | relative viability (Adavosertib + Pictilisib; first compound 0.03162 µM) | relative viability (Adavosertib + Pictilisib; first compound 0.1 µM) | relative viability (Adavosertib + Pictilisib; first compound 0.3162 µM) | relative viability (Adavosertib + Foretinib; first compound 0.01 µM) | relative viability (Adavosertib + Foretinib; first compound 0.03162 µM) | relative viability (Adavosertib + Foretinib; first compound 0.1 µM) | relative viability (Adavosertib + Foretinib; first compound 0.3162 µM) |
| --- | --- | --- | --- | --- | --- | --- | --- | --- | --- | --- | --- | --- | --- | --- | --- | --- | --- | --- |
| NCI-H2023 | 0.597 | 0.497 | 0.503 | 0.422 | 0.455 | 0.416 | 0.41 | 0.39 | 0.33 | 0.422 | 0.251 | 0.21 | 0.197 | 0.143 | 0.85 | 0.933 | 0.916 | 0.568 |
| LK-2 | 0.689 |  | 0.701 | 0.601 | 0.635 | 0.172 |  | 0.161 | 0.147 | 0.156 | 0.549 | 0.622 | 0.676 | 0.59 | 1.16 | 1.21 | 1.64 | 1.14 |
| BEN | 1.3 | 1.08 | 1.11 | 1.04 | 1.25 | 0.566 | 0.495 | 0.551 | 0.546 | 0.452 | 0.575 | 0.682 | 0.587 | 0.558 | 0.523 | 0.682 | 0.566 | 0.695 |
| EPLC-272H | 1.13 | 0.881 | 0.646 | 0.842 | 0.769 | 0.219 | 0.2 | 0.287 | 0.295 | 0.253 | 0.277 | 0.414 | 0.303 | 0.295 | 0.674 | 0.681 | 0.591 | 0.247 |
| NCI-H1975 | 1.04 | 0.942 | 0.823 | 0.856 | 0.797 | 0.69 | 0.689 | 1.05 | 0.911 | 0.926 | 0.267 | 0.279 | 0.261 | 0.19 | 0.967 | 0.962 | 0.878 | 0.778 |
| HCC-827 | 0.673 | 0.622 | 0.571 | 0.571 | 0.463 | 0.499 | 0.423 | 0.446 | 0.366 | 0.476 | 0.985 | 1.05 | 1.08 | 0.937 | 1.07 | 1.09 | 1.09 | 0.929 |
| LCLC-97TM1 |  |  | 0.413 | 0.358 | 0.388 | 0.259 | 0.148 | 0.192 | 0.2 | 0.234 |  | 0.146 | 0.223 | 0.167 | 0.847 | 0.906 | 0.994 | 0.881 |
| NCI-H2126 | 1.05 | 0.981 | 0.951 | 0.961 | 0.967 | 0.968 | 0.864 | 0.779 | 0.809 | 0.824 | 0.531 | 0.526 | 0.506 | 0.521 | 1.27 | 1.22 | 1.15 | 1.16 |
| PC-14 | 0.265 | 0.205 | 0.31 | 0.251 | 0.294 | 0.625 | 0.645 | 0.597 | 0.599 | 0.631 | 0.72 | 0.64 | 0.569 | 0.272 | 0.934 | 0.957 | 0.933 | 0.636 |
| NCI-H1355 | 0.824 | 0.6 | 0.684 | 0.766 | 0.74 | 0.521 | 0.483 | 0.478 | 0.539 | 0.577 | 0.476 | 0.404 | 0.45 | 0.378 | 1.01 | 1.02 | 0.975 | 0.946 |
| NCI-H460 | 0.748 | 0.581 | 0.479 | 0.552 | 0.521 | 0.834 | 0.253 | 0.38 | 0.77 | 0.442 | 0.315 | 0.355 | 0.289 | 0.417 | 1.05 | 0.933 | 1.1 | 0.994 |
| NCI-H1651 | 0.183 | 0.195 | 0.213 | 0.171 | 0.193 | 0.944 | 0.767 | 0.689 | 0.674 | 0.685 | 0.497 | 0.491 | 0.565 | 0.42 | 0.729 | 0.95 | 0.812 | 0.723 |
| NCI-H1650 | 0.922 | 0.81 | 1 | 0.883 | 0.946 | 0.393 | 0.307 | 0.331 | 0.458 | 0.378 | 0.652 | 0.579 | 0.506 | 0.3 | 1.12 | 1.15 | 1.31 | 0.797 |
| NCI-H1734 | 0.688 | 0.597 | 0.689 | 0.61 | 0.654 | 0.305 | 0.253 | 0.253 | 0.257 | 0.292 | 0.41 | 0.434 | 0.478 | 0.31 | 0.954 | 0.831 | 0.82 | 0.759 |
| NCI-H661 | 0.876 | 0.709 | 0.762 | 0.748 | 0.796 | 0.343 | 0.334 | 0.333 | 0.344 | 0.364 | 0.33 | 0.415 | 0.352 | 0.322 | 1.07 | 1.07 | 1.12 | 0.839 |
| H3255 | 0.624 | 0.553 | 0.54 | 0.583 | 0.558 |  | 0.896 | 0.685 | 0.576 | 0.515 | 0.502 | 0.452 | 0.447 | 0.402 | 0.892 | 0.851 | 0.921 | 1.04 |
| NCI-H596 | 0.654 | 0.708 | 0.759 | 0.756 | 0.728 | 1.07 | 0.835 | 0.879 | 0.862 | 0.827 | 0.338 | 0.379 | 0.419 | 0.348 | 1.01 | 1.03 | 0.87 | 0.755 |
| NCI-H1437 | 0.701 | 0.611 | 0.656 | 0.695 | 0.611 | 0.466 | 0.353 | 0.488 | 0.427 | 0.41 | 0.371 | 0.435 | 0.401 | 0.404 | 1.2 | 1.35 | 1.27 | 1.25 |
| NCI-H2228 | 0.664 | 0.574 | 0.322 | 0.826 | 0.447 | 0.226 | 0.163 |  | 0.245 | 0.214 | 0.695 | 0.45 | 0.448 | 0.305 | 0.837 | 1.15 | 0.686 | 0.472 |
| CAL-12T | 0.662 | 0.87 | 0.748 | 0.676 | 0.73 | 0.358 | 0.309 | 0.316 | 0.303 | 0.363 |  | 0.396 | 0.412 | 0.274 | 1.12 | 1.09 | 1.16 | 1.09 |
| LCLC-103H | 0.951 | 0.754 | 0.838 | 0.762 | 0.815 | 0.674 | 0.358 | 0.373 | 0.479 | 0.47 | 0.544 | 0.517 | 0.561 | 0.516 | 0.922 | 0.794 | 0.871 | 0.517 |
| NCI-H2347 | 0.658 | 0.417 | 0.527 | 0.574 | 0.52 | 0.659 | 0.443 | 0.523 | 0.565 | 0.225 | 0.567 | 0.61 | 0.297 | 0.762 | 0.829 | 0.926 | 0.697 | 0.989 |
| NCI-H3122 | 0.668 | 0.607 |  | 0.745 | 0.661 | 0.547 | 0.403 |  | 0.434 | 0.534 | 0.584 | 0.606 | 0.72 | 0.613 | 0.982 | 0.931 | 0.956 | 0.996 |
| NCI-H1793 | 1.36 |  | 0.891 | 1.29 | 1.05 | 0.316 | 0.317 | 0.328 | 0.327 | 0.352 | 0.385 | 0.295 | 0.318 | 0.248 | 0.633 | 0.599 | 0.644 | 0.508 |
| NCI-H358 | 0.616 | 0.406 | 0.587 | 0.637 | 0.627 | 0.0868 | 0.0783 | 0.096 | 0.105 | 0.0898 | 0.356 | 0.312 | 0.353 | 0.285 | 0.764 | 0.682 | 0.592 | 0.285 |
| HOP-62 | 0.479 | 0.315 | 0.283 | 0.368 | 0.458 | 0.434 | 0.305 | 0.42 | 0.364 | 0.402 | 0.771 | 0.891 | 0.762 | 0.961 | 1.09 | 1.23 | 1.15 | 1.34 |
| NCI-H1944 | 0.486 | 0.436 | 0.481 | 0.435 | 0.419 | 0.285 | 0.239 | 0.252 | 0.27 | 0.253 | 0.387 | 0.333 | 0.333 | 0.326 | 0.869 | 0.9 | 0.842 | 0.717 |
| NCI-H838 | 0.839 | 0.743 | 0.849 | 0.89 | 0.852 | 0.285 | 0.274 | 0.272 | 0.341 | 0.262 | 0.446 | 0.411 | 0.449 | 0.485 | 1.06 | 1.06 | 1.04 | 1.19 |
| ABC-1 | 0.774 | 0.706 | 0.777 | 0.903 | 0.835 | 0.233 | 0.149 | 0.162 | 0.146 | 0.175 | 0.586 | 0.695 | 0.528 | 0.627 | 0.909 | 1.31 | 1.39 | 1.03 |
| ChaGo-K-1 | 0.324 | 0.404 | 0.452 | 0.433 | 0.428 | 0.237 | 0.205 | 0.193 | 0.232 | 0.231 | 0.579 | 0.678 | 0.663 | 0.631 | 0.856 | 0.951 | 0.941 | 1.02 |
